Key:
[1] = Oral fluid to blood (OF/B) concentration ratio and plasma concentration; conditions: human, 100 mg
users = tested on: users; parameters: method as in earlier work; conditions: cited from earlier work
5-HT2A receptors = tested on: 5-HT2A receptors; parameters: method as in PMID 25237120, PMID 23583454; conditions: significantly lower potencies than MDMA; cited from earlier work
CYP2D6 = conditions: limited contribution of CYP1A2, CYP2B6, CYP2C19; cited from earlier work
[2] = oral administration, user reports

Row | SMILES | Kp [1] | Threshold dose (users; WHO Expert Committee on Drug Dependence) [mg] | Onset of effects after administration (users; [2]) [min] | Time of peak effects (users; [2]) [min] | Total duration of effects (users; [2]) [h] | Affinity for binding 5-HT2A receptors (5-HT2A receptors) | Enzymes metabolizing the substance in the liver (CYP2D6)
1 | CNC(C)Cc1ccc2c(c1)OCO2 (stereo not shown) [MDMA, 3,4-methylenedioxymethamphetamine] | 22.4 |  |  |  |  |  | 
2 | CNC(C)C(=O)c1ccc2c(c1)OCO2 (stereo not shown) [Methylone, 3,4-methylenedioxymethcathinone] |  | 60 | 15 to 60 | 60 to 90 | 3 to 5 | some affinity | principally by the enzymatic activity of CYP2D6

— PMC8389614, “A Comparison of Acute Pharmacological Effects of Methylone and MDMA Administration in Humans and Oral Fluid Concentrations as Biomarkers of Exposure” (Biology, 2021)
